From patent US9512139B2, “Conformationally constrained, fully synthetic macrocyclic compounds” (POLYPHOR AG, priority 2009, dated 2016)

Assays:
[1] = Metabolic stability assay, CD-1 mouse microsomes; assay type: in vitro ADME; conditions: CD-1, mouse, microsomes; for Metabolic Stability 60 min mouse [% remain.] / Metabolic Stability T½ [min] mouse: both, 10 µM; for Metabolic Stability 60 min mouse [% remain.]: 1 h
in vitro [2] = assay type: in vitro ADME, human; conditions: human, plasma, 10 µM; for Plasma Stability 240 min hum [% remain.]: 4 h
[3] = Metabolic stability assay, human microsomes; assay type: in vitro ADME; conditions: human, microsomes; for half-life at 10 µM: both sexes; for Metabolic Stability 60 min hum [% remain.] / Metabolic Stability T½ [min] hum: both, 10 µM; for Metabolic Stability 60 min hum [% remain.]: 1 h
in vitro [4] = assay type: in vitro ADME, mouse; conditions: both, CD-1, mouse, plasma, 10 µM; for Plasma Stability 240 min mouse [% remain.]: 4 h
Description: Example compounds were dissolved in DMSO/H2O 90:10 to a final concentration of 10 mM for plasma stability determination and metabolic stability determination.
Human plasma (3-5 donors, Blutspendedienst SRK, Basel) and CD-1 mouse plasma (mixed gender pool >50 animals, Innovative Research, CA, USA) are both sodium citrate stabilized. The assay is performed in triplicates at 10 μM compound concentration and 37° C. Samples are taken at 0, 15, 60, and 240 minutes and stopped by precipitation with 2 volumes of acetonitrile. The supernatant is collected, evaporated and reconstituted in a 5% acetonitrile solution to be analyzed by HPLC/MS/MS. The resulting peak area counts are expressed in percent of the 0 value and used to determine the endpoint stability in % and the half life in minutes. In order to monitor assay integrity the degradation of propantheline is assayed with every experimental set.

Motilin Receptor = target: T1, Motilin Receptor (Homo sapiens, UniProt O43193); assay: Ca2+ assay (FLIPR) for the GPCR motilin receptor, agonist and antagonist mode; assay type: cell-based; conditions: antagonist mode
T1 construct: host or cells: Ca2+ optimized hematopoietic cell lines (rat)
Description: Ca^2+ Assays for the GPCRs Motilin Receptor, Prostaglandin F (FP) Receptor, 5-hydroxytryptamine 2B (5-HT2B) Receptor, and Purinoreceptor P2Y1
Assays were performed using on a FLIPR^TETRA fluorometric imaging plate reader (Molecular Devices) with ScreenWorks Version 2 (Molecular Devices) as device operating and data analysis software.
Dose dependent agonist and antagonist activities were determined. Percentage activation and percentage inhibition values were determined.
Percentage activation was determined upon initial addition of the sample compounds followed by 10 minutes incubation at 25° C. Following compound incubation, reference agonists were added at EC80 to determine percentage inhibition.
Reference agonists were purchased from reputable commercial vendors and prepared according to each ligand's specifications. All handling of ligands were done to ensure proper control throughout the experiments.
Example compounds were weighed on a Microbalance (Mettler MX5) and dissolved in 100% DMSO to a final concentration of 2.5 mM and subsequently diluted into the assay buffer.
The Assay buffer was a supplemented HBSS (Hank's Balanced Salt Solution). HBSS was supplemented with 20 mM HEPES (4-(2-hydroxyethyl)-piperazin-1-ethansulfonic acid) and 2.5 mM Probenecid (Sigma P8761).
GPCR assays were performed using Ca^2+ optimized hematopoietic cell lines (rat) with cultures never exceeding 90% confluency. […] After seeding, the assay plates were incubated for forty-five (45) minutes at room temperature. After room temperature incubation, the assay plates were incubated at 37° C. 5% CO2 for 24 hours prior to assaying.
All GPCR assays were performed using Fluo-8 Ca^2+ dye. Ca^2+ dye was prepared at 1× dye concentration in GPCR assay buffer. After 24 hours of incubation, cells were washed with GPCR assay buffer, and then Ca^2+-dye (100 μL/well) was added.
The plates were incubated for 90 minutes at 30° C. 5% CO2 prior to FLIPR assay.
Compound plates were prepared to add 50 μL/well during the agonist assay mode. During the FLIPR assay, 50 μL/well from the compound plate was diluted 3-fold into the existing 100 μL/well from the dye loading step. Therefore all compounds were prepared as 3× the final concentration desired in the assay.
After completion of the first single addition assay run, assay plate was removed from the FLIPR Tetra and placed at 25° C. for seven (7) minutes before antagonist assay.
Using the EC80 values determined during the agonist assay, all pre-incubated sample compound and reference antagonist (if applicable) wells were stimulated at the EC80 of the reference agonist. As reference ligands for the first three assays their obvious natural ligands motilin, prostaglandin F2α, and serotonin (5-HT, 5-Hydroxytryptamine) were used; and for the P2Y1 assay 2MeSATP (2-methyl-thio-adeno-sine 5′-triphosphate, i.e. (2R,3S,4R)-5-(6-amino-2-methylsulfanyl-purin-9-yl)-3,4-dihydroxy-tetrahydrofuran-2-yl]methyl (hydroxy-phosphonooxy-phosphoryl)hydrogen phosphate) was applied.
After the addition of the reference agonist fluorescence was monitored for 180 sec using FLIPR Tetra.
Data Analysis and Results:
From the FLIPR data, with negative control correction enabled, the maximum statistic for each well was exported and percentage activation relative to Emax control was calculated.

[5] = Plasma stability assay, rat plasma (values in parentheses); assay type: in vitro ADME; conditions: value in parentheses
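For Plasma Stability 240 min mouse [% remain.] in this document: sodium citrate stabilized mouse plasma, parent compound quantified by HPLC/MS/MS relative to its peak area at time zero, run in triplicate.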
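For Plasma Stability T½ [min] mouse in this document: sodium citrate stabilized mouse plasma, parent compound quantified by HPLC/MS/MS relative to its peak area at time zero, run in triplicate.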

T1 sequence (O43193 whole entry, species assumed): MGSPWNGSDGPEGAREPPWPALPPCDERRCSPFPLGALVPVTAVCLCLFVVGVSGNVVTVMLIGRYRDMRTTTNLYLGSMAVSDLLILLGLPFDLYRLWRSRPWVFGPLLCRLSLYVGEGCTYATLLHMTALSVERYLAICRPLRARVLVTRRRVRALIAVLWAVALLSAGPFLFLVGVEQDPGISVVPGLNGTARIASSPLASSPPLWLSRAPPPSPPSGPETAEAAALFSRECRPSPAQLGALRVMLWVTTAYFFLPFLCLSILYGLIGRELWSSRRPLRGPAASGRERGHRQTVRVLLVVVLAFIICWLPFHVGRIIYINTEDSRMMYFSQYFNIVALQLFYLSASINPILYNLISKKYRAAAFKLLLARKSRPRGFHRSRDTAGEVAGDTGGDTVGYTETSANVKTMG

half-life at 10 µM ([1]; both sexes) [h]	Metabolic Stability 60 min mouse [% remain.] [1] [% remain.]	Plasma Stability T½ [min] hum (in vitro [2]) [min]	Plasma Stability 240 min hum [% remain.] (in vitro [2])	half-life at 10 µM [3] [h]	Metabolic Stability 60 min hum [% remain.] [3] [% remain.]	Plasma Stability T½ [min] mouse (in vitro [4]) [min]	Plasma Stability 240 min mouse [% remain.] (in vitro [4])	IC50 (Motilin Receptor) [µM]	inhibition at 10 µM (Motilin Receptor) [%]	Metabolic Stability T½ [min] mouse [1] [min]	Metabolic Stability T½ [min] hum [3] [min]	Plasma Stability 240 min (rat) [% remain.] [5]	Plasma Stability T½ [min] (rat) [5]	half-life at 10 µM ([5]; read-out: Plasma Stability T½ [min] (rat))	Compound
0.283	11	> 240	100	0.233	8	> 240	99	0.28	93	–	–	–	–	–	CN1CC(=O)N2CC(NC(=O)Cc3cccc4ccccc34)CC2COc2ccc(F)cc2C(=O)N(C)C(C(=O)NCCNc2ccccn2)CCC1=O [Ex. 485, [2S,11S,19aS)-15-fluoro-7,12-dimethyl-2-{[2-(1-naphthyl)acetyl]amino}-5,8,13-trioxo-N-[2-(2-pyridinylamino)ethyl]-2,3,6,7,8,9,10,11,12,13,19,19a-dodecahydro-1H,5H-pyrrolo[2,1-c] [1,4,7,12]benzoxatriaza-cyclopentadecine-11-carboxamide]
–	83	> 240	83	0.4	10	> 240	96	0.16	98	> 60	–	–	–	–	CN(C)CCNC(=O)[C@@H]1CCC(=O)N(C)CC(=O)N2C[C@@H](NC(=O)Cc3cccc4ccccc34)C[C@H]2COc2ccc(F)cc2C(=O)N1C [Ex. 49, (2S,11S,19aS}-N-[2-(dimethylamino)ethyl]-15-fluoro-7,12-dimethyl-2-{[2-(1-naphthyl)acetyl]amino}-5,8,13-trioxo-2,3,6,7,8,9,10,11,12,13,19,19a-dodecahydro-1H,5H-pyrrolo[2,1-c] [1,4,7,12] benzoxatriazacyclopentadecine-11-carboxamide]
–	100	> 240	100	0.35	11	> 240	90	0.2	99	> 60	–	–	–	–	CN1CC(=O)N2C[C@@H](NC(=O)Cc3cccc4ccccc34)C[C@H]2COc2ccc(F)cc2C(=O)N(C)[C@H](C(=O)NCCNC(=N)N)CCC1=O [Ex. 484, (2S,11S,19aS)-N-(2-{[amino(imino)methyl]amino}ethyl)-15-fluoro-7,12-dimethyl-2-{[2-(1-naphthyl)acetyl]amino}-5,8,13-trioxo-2,3,6,7,8,9,10,11,12,13,19,19a-dodecahydro-1H,5H-pyrrolo[2,1-c] [1,4,7,12] benzoxatriazacyclopentadecine-11-carboxamide]
–	–	> 240	70	–	100	–	–	–	–	–	> 60	(79) % remain.	(240) min	–	CN1CCC[C@H](N2CCNCC2)C(=O)N2C[C@@H](O)C[C@H]2COc2cccc(c2)C1=O [Ex. 580, (4S,6S,10S)-6-hydroxy-14-methyl-10-piperazino-2-oxa-8,14-diazatricyclo[14.3.1.0^4,8]icosa-1(20),16,18-triene-9,15-dione]
–	77	> 240	100	–	74	> 240	100	0.78	79	> 60	> 60	–	–	–	CN(C)CCNC(=O)[C@@H]1CCC(=O)N(C)CC(=O)N2C[C@@H](NC(=O)Cc3c[nH]c4ccccc34)C[C@H]2COc2ccc(F)cc2C(=O)N1C [Ex. 11, (2S,11S,19aS)-N-[2-(dimethylamino)ethyl]-15-fluoro-2-{[2-(1H-indol-3-yl)acetyl]amino}-7,12-dimethyl-5,8,13-trioxo-2,3,6,7,8,9,10,11,12,13, 19,19a-dodecahydro-1H,5H-pyrrolo[2,1-c] [1,4,7,12]benzoxatriazacyclopentadecine-11-carboxamide]
–	85	> 240	100	–	55	> 240	100	0.023	100	> 60	> 60	–	–	–	CN1CC(=O)N2C[C@@H](NC(=O)Cc3cccc4ccccc34)C[C@H]2COc2ccc(F)cc2C(=O)N(C)[C@H](C(=O)NCCN)CCC1=O [Ex. 483, (2S,11S,19aS)-N-(2-aminoethyl)-15-fluoro-7,12-dimethyl-2-{[2-(1-naphthyl)acetyl]amino)-5,8,13-trioxo-2,3,6,7,8,9,10,11,12, 13,19,19a-dodecahydro-1H,5H-pyrrolo [2,1-c] [1,4,7,12]benzoxatriazacyclopentadecine-11-carboxamide]
–	100	> 240	70	–	98	–	–	–	–	> 60	> 60	(77) % remain.	–	210	CN1CCN([C@H]2CCCN(C)C(=O)c3cccc(c3)OC[C@@H]3C[C@H](O)CN3C2=O)CC1 [Ex. 581, (4S,6S,10S)-6-hydroxy-14-methyl-10-(4-methylpiperazino)-2-oxa-8,14-diazatricyclo[14.3.1.0^4,8]icosa-1(20),16,18-triene-9,15-dione]
–	100	> 240	100	0.383	13	> 240	98	0.18	93	> 60	–	–	–	–	CN(C)CCNC(=O)[C@@H]1CCC(=O)N(C)CC(=O)N2C[C@@H](NCCc3cccc4ccccc34)C[C@H]2COc2ccc(F)cc2C(=O)N1C [Ex. 486, (2S,11S,19aS)-N-[2-(dimethylamino)ethyl]-15-fluoro-7,12-dimethyl-2-{[2-(1-naphthyl)ethyl]amino}-5,8,13-trioxo-2,3,6,7,8,9,10,11,12,13,19,19a-dodecahydro-1H,5H-pyrrolo[2,1-c] [1,4,7,12]benzoxatri-azacyclopentadecine-11-carboxamide]

Compound	half-life at 10 µM ([1]; both sexes) [h]	Metabolic Stability 60 min mouse [% remain.] [1] [% remain.]	Plasma Stability T½ [min] hum (in vitro [2]) [min]	Plasma Stability 240 min hum [% remain.] (in vitro [2])	half-life at 10 µM [3] [h]	Metabolic Stability 60 min hum [% remain.] [3] [% remain.]	Plasma Stability T½ [min] mouse (in vitro [4]) [min]	Plasma Stability 240 min mouse [% remain.] (in vitro [4])	IC50 (Motilin Receptor) [µM]	inhibition at 10 µM (Motilin Receptor) [%]	Metabolic Stability T½ [min] mouse [1] [min]	Metabolic Stability T½ [min] hum [3] [min]	Plasma Stability 240 min (rat) [% remain.] [5]	Plasma Stability T½ [min] (rat) [5]	half-life at 10 µM ([5]; read-out: Plasma Stability T½ [min] (rat))
CN(C)CCNC(=O)[C@@H]1CCC(=O)N(C)CC(=O)N2C[C@@H](NC(=O)Nc3cccc4ccccc34)C[C@H]2COc2ccc(F)cc2C(=O)N1C [Ex. 482, (2S,11S,19aS)-N-[2-(dimethylamino)ethyl]-15-fluoro-7,12-dimethyl-2-{[(1-naphthylamino)carbonyl]amino}-5,8,13-trioxo-2,3,6,7,8,9,10, 11,12,13,19,19a-dodecahydro-1H,5H-pyrrolo [2,1-c] [1,4,7,12]benzoxatriazacyclopentadecine-11-carboxamide]	–	84	> 240	100	0.367	11	> 240	100	1.1	62	> 60	–	–	–	–
